According to the supplement of paper PMC5908809:

Key:
[1] = system: normal NK cells expanded with K562-aAPC; assay: percent inhibition of viability; higher = more inhibition; conditions: 72 h, IL-2 2.5 ng/mL
Method: (§1)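 Drug sensitivity and resistance testing on K562-aAPC-expanded normal NK cells: 5 concentrations (10-fold steps over a 10,000-fold range), 72 h at 37 °C, viability by CellTiter-Glo normalised to DMSO and benzethonium chloride controls; DSS from the fitted curve.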

DERL-7 (IL-2 2.5 ng/mL) [2] = assay: as above; conditions: 72 h
IMC-1 (IL-2 20 ng/mL) [3] = assay: as above; conditions: 72 h
KAI3 (IL-2 2.5 ng/mL) [4] = assay: as above; conditions: 72 h
KHYG-1 (IL-2 2.5 ng/mL) [5] = assay: as above; conditions: 72 h
NK-92 (IL-2 2.5 ng/mL) [6] = assay: as above; conditions: 72 h
NK-YS (IL-2 2.5 ng/mL) [7] = assay: as above; conditions: 72 h
NKL (IL-2 2.5 ng/mL) [8] = assay: as above; conditions: 72 h
SNK-6 (IL-2 2.5 ng/mL) [9] = assay: as above; conditions: 72 h
YT (IL-2 2.5 ng/mL) [10] = assay: as above; conditions: 72 h
[11] = system: normal primary NK cells, pool 1 (3 donors) (IL-2 2.5 ng/mL); assay: as above; conditions: 72 h
[12] = system: normal primary NK cells, pool 1 (3 donors), resting (IL-2 0 ng/mL); assay: as above; conditions: 72 h
[13] = system: normal primary NK cells, pool 2 (3 donors) (IL-2 2.5 ng/mL); assay: as above; conditions: 72 h
[14] = system: normal primary NK cells, pool 3 (3 donors) (IL-2 2.5 ng/mL); assay: as above; conditions: 72 h
[15] = system: normal NK cells expanded with K562-aAPC; assay: drug sensitivity score (DSS) (DSS units); higher = more sensitive; extreme values may be limits of the assay; conditions: 72 h; IL-2 2.5 ng/mL
Method: as §1

DERL-7 (IL-2 2.5 ng/mL) [16] = assay: as above; conditions: 72 h
IMC-1 (IL-2 20 ng/mL) [17] = assay: as above; conditions: 72 h
KAI3 (IL-2 2.5 ng/mL) [18] = assay: as above; conditions: 72 h
KHYG-1 (IL-2 2.5 ng/mL) [19] = assay: as above; conditions: 72 h
NK-92 (IL-2 2.5 ng/mL) [20] = assay: as above; conditions: 72 h
NK-YS (IL-2 2.5 ng/mL) [21] = assay: as above; conditions: 72 h
NKL (IL-2 2.5 ng/mL) [22] = assay: as above; conditions: 72 h
SNK-6 (IL-2 2.5 ng/mL) [23] = assay: as above; conditions: 72 h
YT (IL-2 2.5 ng/mL) [24] = assay: as above; conditions: 72 h
[25] = system: normal primary NK cells, pool 1 (3 donors) (IL-2 2.5 ng/mL); assay: as above; conditions: 72 h
[26] = system: normal primary NK cells, pool 1 (3 donors), resting (IL-2 0 ng/mL); assay: as above; conditions: 72 h
[27] = system: normal primary NK cells, pool 2 (3 donors) (IL-2 2.5 ng/mL); assay: as above; conditions: 72 h
[28] = system: normal primary NK cells, pool 3 (3 donors) (IL-2 2.5 ng/mL); assay: as above; conditions: 72 h

CO[C@@]12[C@H](COC(N)=O)C3=C(C(=O)C(C)=C(N)C3=O)N1C[C@@H]1N[C@@H]12 [Mitomycin C] (max concentration tested 10000 nM)
percent inhibition of viability [%]
Conditions | 1 nM | 10 nM | 100 nM | 1000 nM | 10000 nM
DERL-7 (IL-2 2.5 ng/mL) [2] | -3.54 | 4.32 | -0.35 | -4.88 | 11.3
IMC-1 (IL-2 20 ng/mL) [3] | -2.35 | 2.42 | 2.75 | 5.66 | 98.4
KAI3 (IL-2 2.5 ng/mL) [4] | -6 | 1.39 | 6.47 | 42.2 | 90.1
KHYG-1 (IL-2 2.5 ng/mL) [5] | -11.3 | -10.2 | -3.76 | 90.6 | 106
NK-92 (IL-2 2.5 ng/mL) [6] | -6.49 | -1.15 | -5.66 | 25.2 | 96
NK-YS (IL-2 2.5 ng/mL) [7] | -3.94 | -3.78 | 7.6 | 89.1 | 101
NKL (IL-2 2.5 ng/mL) [8] | -16.1 | -7.78 | 25.9 | 99.1 | 99.9
SNK-6 (IL-2 2.5 ng/mL) [9] | 8 | -22.7 | -15.3 | 85.5 | 90
YT (IL-2 2.5 ng/mL) [10] | -7.65 | -5.91 | -4.19 | -0.39 | 73.2
[1] | -6.75 | -6.89 | -6.31 | 1.66 | 36.7
[11] | -7.25 | 13.3 | 6.96 | 7.9 | 35
[12] | 3.33 | 21.6 | 12.1 | 19.2 | 72.1
[13] | -2.16 | 4.57 | 8.07 | 44.3 | 91.9
[14] | -2.62 | 8.35 | 8.1 | 31.6 | 94.6

Conditions | drug sensitivity score
DERL-7 (IL-2 2.5 ng/mL) [16] | 0
IMC-1 (IL-2 20 ng/mL) [17] | 6.29
KAI3 (IL-2 2.5 ng/mL) [18] | 9.91
KHYG-1 (IL-2 2.5 ng/mL) [19] | 16.3
NK-92 (IL-2 2.5 ng/mL) [20] | 9.13
NK-YS (IL-2 2.5 ng/mL) [21] | 17.2
NKL (IL-2 2.5 ng/mL) [22] | 21.9
SNK-6 (IL-2 2.5 ng/mL) [23] | 14.8
YT (IL-2 2.5 ng/mL) [24] | 4.01
[15] | 1.99
[25] | 2.74
[26] | 6.45
[27] | 10.3
[28] | 9.16
